The assay has as its target P70S6K (T412E mutant) (Homo sapiens (Human), UniProt P23443, T412E). Description: P70S6K enzyme assay. The class given is biochemical. Conditions: 3 nM P70S6K T412E mutant, 24 μM ATP, 1 μM FITC-AHA-AKRRRLSSLRA-OH substrate peptide, 90 min at 25° C. In short, it runs like this: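 IC50s come from mobility-shift separation of phospho-product from FITC-AHA-AKRRRLSSLRA-OH substrate (1 μM) after the reaction was quenched with 10 mM EDTA. The reaction used 3 nM T412E-mutant enzyme and 24 μM ATP, running 90 min at 25° C in 100 mM Hepes pH 7.5 buffer.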

In patent US9321760B2 (Merck Patent GmbH, priority 2011, dated 2016) one finds IC50 data, which are given here for 24 compounds.

Sequence of P70S6K (T412E mutant) (P23443 whole entry T412E): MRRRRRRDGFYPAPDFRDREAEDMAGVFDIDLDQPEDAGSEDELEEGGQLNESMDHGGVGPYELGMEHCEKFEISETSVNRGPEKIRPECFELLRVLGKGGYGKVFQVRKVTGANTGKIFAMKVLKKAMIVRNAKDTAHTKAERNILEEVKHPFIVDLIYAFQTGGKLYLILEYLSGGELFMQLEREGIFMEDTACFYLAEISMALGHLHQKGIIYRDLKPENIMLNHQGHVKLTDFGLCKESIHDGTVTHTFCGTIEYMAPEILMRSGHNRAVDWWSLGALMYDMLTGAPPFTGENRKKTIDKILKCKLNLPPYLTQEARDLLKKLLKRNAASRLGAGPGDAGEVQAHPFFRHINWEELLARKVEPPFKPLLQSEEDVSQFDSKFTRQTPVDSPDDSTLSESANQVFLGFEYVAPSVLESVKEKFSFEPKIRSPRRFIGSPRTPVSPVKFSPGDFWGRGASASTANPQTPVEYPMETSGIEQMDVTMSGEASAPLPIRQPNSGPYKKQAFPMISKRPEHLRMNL

Compound `N#CC(c1ccc(C(F)(F)F)nc1)N1CCN(c2ncnc(N)c2-c2ccc(F)cc2)CC1` (stereo not drawn) [Example 189, {4-[6-Amino-5-(4-fluoro-phenyl)-pyrimidin-4-yl]-piperazin-1-yl}-(6-trifluoromethyl-pyridin-3-yl)-acetonitrile] yielded a half-maximal inhibitory concentration (IC50) of 140 nM.
The result for `N#CC(c1cccnc1)N1CCN(c2ncnc(N)c2-c2ccc(F)cc2)CC1` (stereo not drawn) [Example 190, {4-[6-Amino-5-(4-fluoro-phenyl)-pyrimidin-4-yl]-piperazin-1-yl}-pyridin-3-yl-acetonitrile] reads 230 nM; that for `N#CC(C1CCCCC1)N1CCN(c2ncnc(N)c2-c2ccc(F)cc2)CC1` (stereo not drawn) [Example 191, {4-[6-Amino-5-(4-fluoro-phenyl)-pyrimidin-4-yl]-piperazin-1-yl}-cyclohexyl-acetonitrile], 200 nM.
The same measure for `NCC(c1cc(C(F)(F)F)ccc1F)N1CCN(c2ncnc(N)c2-c2ccc(F)cc2)CC1` (stereo not drawn) [Example 192, 6-{4-[2-Amino-1-(2-fluoro-5-trifluoromethyl-phenyl)-ethyl]-piperazin-1-yl}-5-(4-fluoro-phenyl)-pyrimidin-4-ylamine]: 13 nM; for `NCC(c1cccnc1)N1CCN(c2ncnc(N)c2-c2ccc(F)cc2)CC1` (stereo not drawn) [Example 193, 6-[4-(2-Amino-1-pyridin-3-yl-ethyl)-piperazin-1-yl]-5-(4-fluoro-phenyl)-pyrimidin-4-ylamine]: 31 nM; for `NCC(c1ccc(C(F)(F)F)nc1)N1CCN(c2ncnc(N)c2-c2ccc(F)cc2)CC1` (stereo not drawn) [Example 194, 6-{4-[2-Amino-1-(6-trifluoromethyl-pyridin-3-yl)-ethyl]-piperazin-1-yl}-5-(4-fluoro-phenyl)-pyrimidin-4-ylamine]: 9.8 nM.
For the compound `Nc1ncnc(N2CCC(N)(CNC(=O)c3ccc(F)cc3F)C2)c1Br` (stereo not drawn) [Example 195, N-[3-Amino-1-(6-amino-5-bromo-pyrimidin-4-yl)-pyrrolidin-3-ylmethyl]-2,4-difluoro-benzamide], the IC50 turned out to be 3.3 nM.
Consider `N#Cc1c(N)ncnc1N1CCC(N)(CNC(=O)c2ccc(F)cc2F)C1` (stereo not drawn) [Example 196, N-[3-Amino-1-(6-amino-5-cyano-pyrimidin-4-yl)-pyrrolidin-3-ylmethyl]-2,4-difluoro-benzamide], for which the IC50 was 50 nM.
As for `NC(=O)c1c(N)ncnc1N1CCC(N)(CNC(=O)c2ccc(F)cc2F)C1` (stereo not drawn) [Example 197, 4-Amino-6-{3-amino-3-[(2,4-difluoro-benzoylamino)-methyl]-pyrrolidin-1-yl}-pyrimidine-5-carboxamide], the IC50 is 530 nM.
The result for `Nc1ncnc(N2CCC(N)(CNC(=O)c3ccc(F)cc3F)C2)c1-c1ccc(F)cc1` (stereo not drawn) [Example 198, N-{3-Amino-1-[6-amino-5-(4-fluoro-phenyl)-pyrimidin-4-yl]-pyrrolidin-3-ylmethyl}-2,4-difluoro-benzamide] reads 4.8 nM; that for `N#Cc1ccc(-c2c(N)ncnc2N2CCC(N)(CNC(=O)c3ccc(F)cc3F)C2)cc1` (stereo not drawn) [Example 199, N-{3-Amino-1-[6-amino-5-(4-cyano-phenyl)-pyrimidin-4-yl]-pyrrolidin-3-ylmethyl}-2,4-difluoro-benzamide], 11 nM.
The same measure for `Nc1ncnc(N2CCC(N)(CNC(=O)c3ccc(F)cc3F)C2)c1-c1ccc(Oc2ccccc2)cc1` (stereo not drawn) [Example 200, N-{3-Amino-1-[6-amino-5-(4-phenoxy-phenyl)-pyrimidin-4-yl]-pyrrolidin-3-ylmethyl}-2,4-difluoro-benzamide]: 120 nM; for `COc1ccc(-c2c(N)ncnc2N2CCC(N)(CNC(=O)c3ccc(F)cc3F)C2)cn1` (stereo not drawn) [Example 201, N-{3-Amino-1-[6-amino-5-(6-methoxy-pyridin-3-yl)-pyrimidin-4-yl]-pyrrolidin-3-ylmethyl}-2,4-difluoro-benzamide]: 9.5 nM.
The same measure for `Nc1ncnc(N2CCC(N)(CNC(=O)c3ccc(F)cc3F)C2)c1-c1ccc(C(F)(F)F)cc1` (stereo not drawn) [Example 202, N-{3-Amino-1-[6-amino-5-(4-trifluoromethyl-phenyl)-pyrimidin-4-yl]-pyrrolidin-3-ylmethyl}-2,4-difluoro-benzamide]: 9.1 nM; for `Nc1ncnc(N2CCC(N)(CNC(=O)c3ccc(F)cc3F)C2)c1-c1ccccc1` (stereo not drawn) [Example 203, N-[3-Amino-1-(6-amino-5-phenyl-pyrimidin-4-yl)-pyrrolidin-3-ylmethyl]-2,4-difluoro-benzamide]: 5.3 nM; for `Nc1ncnc(N2CCC(N)(CNC(=O)c3ccc(F)cc3F)C2)c1-c1cccc(F)c1` (stereo not drawn) [Example 204, N-{3-Amino-1-[6-amino-5-(3-fluoro-phenyl)-pyrimidin-4-yl]-pyrrolidin-3-ylmethyl}-2,4-difluoro-benzamide]: 2.6 nM.
For the compound `Nc1ncnc(N2CCC(N)(CNC(=O)c3ccc(F)cc3F)C2)c1-c1ccncc1` (stereo not drawn) [Example 205, N-[3-Amino-1-(6-amino-5-pyridin-4-yl-pyrimidin-4-yl)-pyrrolidin-3-ylmethyl]-2,4-difluoro-benzamide], it took 25 nM to reach half-maximal inhibition (IC50).
The result for `Nc1ncnc(N2CCC(N)(CNC(=O)c3ccc(F)cc3F)C2)c1-c1ccc(N2CCNCC2)nc1` (stereo not drawn) [Example 206, N-{3-Amino-1-[6-amino-5-(6-piperazin-1-yl-pyridin-3-yl)-pyrimidin-4-yl]-pyrrolidin-3-ylmethyl}-2,4-difluoro-benzamide] reads 1000 nM; that for `Nc1ncnc(N2CCC(N)(CNC(=O)c3ccc(F)cc3F)CC2)c1Br` [Example 207, N-[4-Amino-1-(6-amino-5-bromo-pyrimidin-4-yl)-piperidin-4-ylmethyl]-2,4-difluoro-benzamide], 150 nM.
The same measure for `Nc1ncnc(N2CCC(N)(CNC(=O)c3ccc(F)cc3F)CC2)c1-c1ccc(F)cc1` [Example 208, N-{4-Amino-1-[6-amino-5-(4-fluoro-phenyl)-pyrimidin-4-yl]-piperidin-4-ylmethyl}-2,4-difluoro-benzamide]: 46 nM.
`CCc1c(N)ncnc1N1CCC(N)(C(=O)N[C@@H](CCO)c2ccc(Cl)cc2)CC1` [Example 214, 4-Amino-1-(6-amino-5-ethyl-pyrimidin-4-yl)-piperidine-4-carboxylic acid [(S)-1-(4-chloro-phenyl)-3-hydroxy-propyl]-amide] showed an IC50 of 450 nM.
The result for `CC[C@H](NC(=O)C1(N)CCN(c2ncnc(N)c2Cl)CC1)c1ccc(Cl)cc1` [Example 215, 4-Amino-1-(6-amino-5-chloro-pyrimidin-4-yl)-piperidine-4-carboxylic acid [(S)-1-(4-chloro-phenyl)-propyl]-amide] reads 190 nM; that for `Nc1ncnc(N2CCC(N)(C(=O)N[C@H](c3ccc(Cl)cc3)C(F)(F)F)CC2)c1Cl` [Example 216, 4-Amino-1-(6-amino-5-chloro-pyrimidin-4-yl)-piperidine-4-carboxylic acid [(R)-1-(4-chloro-phenyl)-2,2,2-trifluoroethyl]-amide], 820 nM; that for `NC(=O)C[C@H](NC(=O)C1(N)CCN(c2ncnc(N)c2Cl)CC1)c1ccc(Cl)cc1` [Example 217, 4-Amino-1-(6-amino-5-chloro-pyrimidin-4-yl)-piperidine-4-carboxylic acid [(S)-2-carbamoyl-1-(4-chloro-phenyl)ethyl]-amide], 820 nM.
